IC50 data for 35 molecules are collected here from patent publication US11993591B2, “Chromen-4-one derivatives for the treatment and prophylaxis of hepatitis B virus disease” (Hoffmann-La Roche Inc., priority 2018, dated 2024).

The structures appear in SMILES notation.

Usually IC50 stands for the point on the concentration scale where inhibition reaches its midpoint. A higher IC50 goes with lower potency.

This assay concerns HBV cccDNA (HBeAg level) in HepDES19 cells. Briefly: Engineered HepDES19 primary screen assay (HBeAg as surrogate marker for cccDNA). The class given is cell-based. Conditions: Hepatitis B virus, HepDES19, 120 h. The text has this: The assay was employed to screen for novel cccDNA inhibitors. HepDES19 is a cccDNA-producing cell line. In this cell line, HBeAg in the cell culture supernatant as surrogate marker, as HBeAg production depends on cccDNA level and activity. HepDES19 is an engineered cell line which contains a 1.1 unit length HBV genome, and pgRNA transcription from the transgene is controlled by Tetracycline (Tet). In the absence of Tet, pgRNA transcription will be induced, but HBV e antigen (HBeAg) could not be produced from this pgRNA due to very short leader sequence before the HBeAg start codon and the start codon is disrupted. Only after cccDNA is formed, the missing leader sequence and start codon mutation would be restored from the 3′-terminal redundancy of pgRNA, and then HBeAg could be synthesized. Therefore, HBeAg could be used as a surrogate marker for cccDNA (Zhou, T. et al., Antiviral Res. (2006), 72(2), 116-124; Guo, H. et al., J. Virol. (2007), 81(22), 12472-12484).
HepDES19 cells were seeded at 2×10^6 cells per T150 flask and cultured with the culture medium (Dulbecco's Modified Eagle Medium: Nutrient Mixture F-12 [DMEM-F12, Gibco Cat. 11320-82], 10% Fetal Bovine Serum [FBS, Clontech Cat. 631101], 0.1 mM Non-Essential Amino Acids Solution [NEAA, Gibco Cat. 11140-050], 50 μg/mL Penicillin-Streptomycin [PS, Invitrogen Cat. 15140-163], 500 μg/mL Geneticin [G418, Invitrogen Cat. 10131-027]) containing 3 μg/mL Tet (Sigma, Cat. 87128) for 5 days. Cells were then seeded at 4×10^6 cells per T150 in the same culture medium as described above in the absence of Tet for 8 days. Cells were then harvested and frozen at density of 2×10^6 cells per mL. For compound testing, the frozen cells were thawed and seeded into 96-well plates at a density of 6×10^4 cells per well. At 24 hours after seeding, half log serial dilutions of compounds made with Dimethyl sulfoxide (DMSO, Sigma, Cat. D2650) were further diluted with the same culture medium as described above before they were added to the cells to reach desired final compound concentrations and 1% DMSO concentration. Plates were then incubated at 37° C. for another 5 days before measurement of HBeAg level and cell viability. Intracellular HBeAg level were measured with enzyme-linked immunosorbent assay (ELISA) kit (Shanghai Kehua Diagnostic Medical Products Co., Ltd). Cell viability was assessed using Cell Counting Kit-8 (Donjindo, Cat. CK04-20). IC50 values were derived from the dose-response curve using 4 parameter logistic curve fit method.
The compounds of the present invention were tested for their capacity to inhibit extracellular HBeAg level as described herein.
The molecule `Cc1cc(Cl)ccc1NC(=O)c1cc(=O)c2cccc(Cl)c2o1` [Example 8, 8-chloro-N-(4-chloro-2-methylphenyl)-4-oxo-chromene-2-carboxamide] came in with a half-inhibitory concentration (IC50) of 0.32 µM.
Under `O=C(O)CCCOc1cc(Cl)ccc1NC(=O)c1cc(=O)c2cc(Cl)cc(Cl)c2o1` [Example 11, 4-(5-chloro-2-(6,8-dichloro-4-oxo-chromene-2-carboxamido)phenoxy)butanoic Acid] stands 3.12 µM.
To `O=C(c1cc(=O)c2cccc(Cl)c2o1)N1CCc2cc(Br)ccc2C1` [Example 17, 2-(6-bromo-1,2,3,4-tetrahydroisoquinoline-2-carbonyl)-8-chloro-chromen-4-one] belongs 10.8 µM; to `O=C(O)COc1cc(Cl)ccc1NC(=O)c1cc(=O)c2cccc(Cl)c2o1` [Example 20, 2-(5-chloro-2-(8-chloro-4-oxo-chromene-2-carboxamido)phenoxy)acetic Acid], 50 µM.
As for `COC(=O)c1ccc(C)c(NC(=O)c2cc(=O)c3cccc(Cl)c3o2)c1` [Example 21, Methyl 3-(8-chloro-4-oxo-chromene-2-carboxamido)-4-methylbenzoate], inhibition was half-maximal at 11 µM (IC50). This IC50 lies about 4.5-fold lower than the previous one.
`O=C(O)COCCOc1cc(Cl)ccc1NC(=O)c1cc(=O)c2cc(Cl)cc(Cl)c2o1` [Example 22, 2-(2-(5-chloro-2-(6,8-dichloro-4-oxo-chromene-2-carboxamido)phenoxy)ethoxy)acetic Acid] showed an IC50 of 11.9 µM. The IC50 values of the last two molecules are within 1.5-fold of each other.
For the molecule `Cc1cc(NC(=O)c2cc(=O)c3cccc(Cl)c3o2)ncc1Br` [Example 23, N-(5-bromo-4-methylpyridin-2-yl)-8-chloro-4-oxo-chromene-2-carboxamide], inhibition was half-maximal at 11.9 µM (IC50).
To `O=C(O)COCCOc1cc(Cl)ccc1NC(=O)c1cc(=O)c2cccc(Cl)c2o1` [Example 24, 2-(2-(5-chloro-2-(8-chloro-4-oxo-chromene-2-carboxamido)phenoxy)ethoxy)acetic Acid] belongs 13.9 µM.
Under `COC(=O)c1cc(Cl)ccc1NC(=O)c1cc(=O)c2cccc(Cl)c2o1` [Example 25, Methyl 5-chloro-2-(8-chloro-4-oxo-chromene-2-carboxamido)benzoate] stands 16.2 µM; under `COC(=O)c1ccc(CNC(=O)c2cc(=O)c3cccc(Cl)c3o2)cc1` [Example 26, Methyl 4-((8-chloro-4-oxo-chromene-2-carboxamido)methyl)benzoate], 20.6 µM.
Under `COC(=O)c1ccc(NC(=O)c2cc(=O)c3cccc(Cl)c3o2)c(C)c1` [Example 27, Methyl 4-(8-chloro-4-oxo-chromene-2-carboxamido)-3-methylbenzoate] stands 23.4 µM; under `O=C(c1cc(=O)c2cccc(Cl)c2o1)N1CCc2cccc(Cl)c2C1` [Example 28, 8-chloro-2-(8-chloro-3,4-dihydro-1H-isoquinoline-2-carbonyl)chromen-4-one], 24.3 µM.
`CC(NC(=O)c1cc(=O)c2cccc(Cl)c2o1)c1ccc(Br)cc1` (centres unmarked) [Example 29, N-(1-(4-bromophenyl)ethyl)-8-chloro-4-oxo-chromene-2-carboxamide]: the concentration for half-maximal inhibition (IC50) was 24.9 µM.
On to `Cc1cc(O)ccc1NC(=O)c1cc(=O)c2cccc(Cl)c2o1` [Example 30, 8-chloro-N-(4-hydroxy-2-methylphenyl)-4-oxo-chromene-2-carboxamide], for which the IC50 came out at 25.9 µM.
The molecule `O=C(c1cc(=O)c2cccc(Cl)c2o1)N1Cc2cccc(Br)c2C1` [Example 31, 2-(4-bromoisoindoline-2-carbonyl)-8-chloro-chromen-4-one] showed an IC50 of 26.8 µM.
To `COc1cc(Br)cnc1NC(=O)c1cc(=O)c2cccc(Cl)c2o1` [Example 32, N-(5-bromo-3-methoxypyridin-2-yl)-8-chloro-4-oxo-chromene-2-carboxamide] belongs 33.7 µM; to `O=C(c1cc(=O)c2cccc(Cl)c2o1)N1CCCc2ccc([N+](=O)[O-])cc21` [Example 33, 8-chloro-2-(7-nitro-3,4-dihydro-2H-quinoline-1-carbonyl)chromen-4-one], 35.3 µM; to `O=C(Nc1ccc(Cl)cc1OCCOC1CC(C(=O)O)C1)c1cc(=O)c2cccc(Cl)c2o1` (centres unmarked) [Example 34, 3-(2-(5-chloro-2-(8-chloro-4-oxo-chromene-2-carboxamido)phenoxy)ethoxy)cyclobutane-1-carboxylic Acid], 44.6 µM.
Under `CCOC(=O)c1nnc(NC(=O)c2cc(=O)c3cccc(Cl)c3o2)s1` [Example 35, Ethyl 5-(8-chloro-4-oxo-chromene-2-carboxamido)-1,3,4-thiadiazole-2-carboxylate] stands 44.6 µM; under `COC(=O)c1cccc(COC2CC3CCC(C2)N3c2cc(=O)c3cccc(Cl)c3o2)c1` (centres unmarked) [Example 41, Methyl 3-(((8-(8-chloro-4-oxo-chromen-2-yl)-8-azabicyclo[3.2.1]octan-3-yl)oxy)methyl)benzoate], 3.99 µM.
Under `COc1ccc(CNc2oc3c(Cl)cccc3c(=O)c2I)cc1` [Example 42, 8-chloro-3-iodo-2-((4-methoxybenzyl)amino)-chromen-4-one] stands 4.34 µM; under `COc1ccc2c(c1)CN(c1cc(=O)c3cccc(Cl)c3o1)C2=O` [Example 43, 2-(8-chloro-4-oxo-chromen-2-yl)-5-methoxyisoindolin-1-one], 4.78 µM; under `COc1ccc2c(c1)CCN(c1cc(=O)c3cccc(Cl)c3o1)C2=O` [Example 44, 2-(8-chloro-4-oxo-chromen-2-yl)-6-methoxy-3,4-dihydroisoquinolin-1-one], 5.44 µM.
In turn, `O=c1cc(N2CCN(c3ccccc3)CC2)oc2c(Cl)cc(F)cc12` [Example 45, 8-chloro-6-fluoro-2-(4-phenylpiperazin-1-yl)-chromen-4-one] came in with a concentration for half-maximal inhibition (IC50) of 8.58 µM.
Under `O=c1c(I)c(-n2ccc(OCc3ccccc3)cc2=O)oc2c(Cl)cccc12` [Example 46, 4-benzyloxy-1-(8-chloro-3-iodo-4-oxo-chromen-2-yl)pyridin-2-one] stands 9.66 µM.
Under `O=c1cc(N2CC3(CC(O)C3)C2)oc2c(Cl)cccc12` [Example 47, 8-chloro-2-(6-hydroxy-2-azaspiro[3.3]heptan-2-yl)chromen-4-one] stands 10.7 µM.
To `COc1ccc(CN(C)c2cc(=O)c3cccc(Cl)c3o2)cc1` [Example 48, 8-chloro-2-((4-methoxybenzyl)(methyl)amino)-chromen-4-one] belongs 12.1 µM; to `O=c1cc(N2CCC(c3ccccc3)CC2)oc2c(Cl)cc(F)cc12` [Example 49, 8-chloro-6-fluoro-2-(4-phenylpiperidin-1-yl)-chromen-4-one], 12.4 µM; to `O=C(O)C1CC(OCCOc2ccc(C3CCN(c4cc(=O)c5cc(F)cc(Cl)c5o4)CC3)cc2)C1` (centres unmarked) [Example 50, 3-(2-(4-(1-(8-chloro-6-fluoro-4-oxo-chromen-2-yl)piperidin-4-yl)phenoxy)ethoxy)cyclobutane-1-carboxylic Acid], 14.1 µM.
The molecule `O=c1cc(N2C3CCC2CC(O)C3)oc2c(Cl)cccc12` (centres unmarked) [Example 51, 8-chloro-2-(3-hydroxy-8-azabicyclo[3.2.1]octan-8-yl)-chromen-4-one] had an IC50 of 14.8 µM.
Under `COc1ccc(CNc2cc(=O)c3cccc(Cl)c3o2)cc1` [Example 52, 8-chloro-2-((4-methoxybenzyl)amino)-chromen-4-one] stands 15 µM; under `COC(=O)c1cccc(N2CCN(c3cc(=O)c4cccc(Cl)c4o3)CC2)c1` [Example 53, Methyl 3-(4-(8-chloro-4-oxo-chromen-2-yl)piperazin-1-yl)benzoate], 15 µM; under `COC(=O)C1CC(OCCOc2ccc3c(c2)C(=O)N(c2cc(=O)c4cccc(Cl)c4o2)C3)C1` (centres unmarked) [Example 54, Methyl 3-(2-((2-(8-chloro-4-oxo-chromen-2-yl)-3-oxoisoindolin-5-yl)oxy)ethoxy)cyclobutanecarboxylate], 16 µM.
As to `COc1ccc2c(c1)C(=O)N(c1cc(=O)c3cccc(Cl)c3o1)C2` [Example 55, 2-(8-chloro-4-oxo-chromen-2-yl)-6-methoxyisoindolin-1-one], the IC50 worked out at 16.7 µM.
Under `CN(Cc1ccc(OCCOC2CC(C(=O)O)C2)cc1)c1cc(=O)c2cccc(Cl)c2o1` (centres unmarked) [Example 56, 3-(2-(4-(((8-chloro-4-oxo-chromen-2-yl)(methyl)amino)methyl)phenoxy)ethoxy)cyclobutanecarboxylic acid] stands 19.6 µM.
